Measurements taken from PMC5218480 (PLoS ONE, 2017).

Legend:
HDAC4 = biological target: T1, HDAC4 (Homo sapiens, UniProt P56524); assay: HDAC enzyme assay, in vitro biochemical; settings: maximum concentration tested of 20 μM
T1 construct: purchased BPS Biosciences
Description: (§1) In vitro biochemical assays were performed as described previously. Specifically, compounds were dissolved and diluted in assay buffer (50 mM HEPES, pH 7.4, 100 mM KCl, 0.001% Tween-20, 0.05% BSA, and 20 μM Tris (2-carboxyethyl) phosphine) to 6-fold the final concentration. […] The amount of substrate (acetyl-lysine tripeptide) used for each enzyme was equal to the Michaelis constant (Km), as determined by a titration curve. Substrate was diluted in assay buffer to 6-fold of the final concentration with 0.3 μM sequencing grade trypsin (Sigma-Aldrich). The substrate/trypsin mix was added to the enzyme/compound mix and the plate was shaken for 5 seconds and then placed into a SpectraMax M5 microtiter (Molecular Devices) plate reader. The enzymatic reaction was monitored over 30 minutes for release of […] after deacetylation of the lysine side chain in the peptide substrate, and the linear rate of the reaction was calculated.
(§2) biochemical assay for HDAC4, HDAC5, HDAC6, HDAC7, HDAC8, HDAC9 inhibition by ACY-1035.
(§3) (1 picture or pasted object on this page, not shown here)

HDAC6 = biological target: T2, HDAC6 (Homo sapiens, UniProt Q9UBN7); assay: HDAC enzyme assay, in vitro biochemical; settings: maximum concentration tested of 20 μM
T2 construct: purchased BPS Biosciences
T2 sequence (Q9UBN7 1-1215): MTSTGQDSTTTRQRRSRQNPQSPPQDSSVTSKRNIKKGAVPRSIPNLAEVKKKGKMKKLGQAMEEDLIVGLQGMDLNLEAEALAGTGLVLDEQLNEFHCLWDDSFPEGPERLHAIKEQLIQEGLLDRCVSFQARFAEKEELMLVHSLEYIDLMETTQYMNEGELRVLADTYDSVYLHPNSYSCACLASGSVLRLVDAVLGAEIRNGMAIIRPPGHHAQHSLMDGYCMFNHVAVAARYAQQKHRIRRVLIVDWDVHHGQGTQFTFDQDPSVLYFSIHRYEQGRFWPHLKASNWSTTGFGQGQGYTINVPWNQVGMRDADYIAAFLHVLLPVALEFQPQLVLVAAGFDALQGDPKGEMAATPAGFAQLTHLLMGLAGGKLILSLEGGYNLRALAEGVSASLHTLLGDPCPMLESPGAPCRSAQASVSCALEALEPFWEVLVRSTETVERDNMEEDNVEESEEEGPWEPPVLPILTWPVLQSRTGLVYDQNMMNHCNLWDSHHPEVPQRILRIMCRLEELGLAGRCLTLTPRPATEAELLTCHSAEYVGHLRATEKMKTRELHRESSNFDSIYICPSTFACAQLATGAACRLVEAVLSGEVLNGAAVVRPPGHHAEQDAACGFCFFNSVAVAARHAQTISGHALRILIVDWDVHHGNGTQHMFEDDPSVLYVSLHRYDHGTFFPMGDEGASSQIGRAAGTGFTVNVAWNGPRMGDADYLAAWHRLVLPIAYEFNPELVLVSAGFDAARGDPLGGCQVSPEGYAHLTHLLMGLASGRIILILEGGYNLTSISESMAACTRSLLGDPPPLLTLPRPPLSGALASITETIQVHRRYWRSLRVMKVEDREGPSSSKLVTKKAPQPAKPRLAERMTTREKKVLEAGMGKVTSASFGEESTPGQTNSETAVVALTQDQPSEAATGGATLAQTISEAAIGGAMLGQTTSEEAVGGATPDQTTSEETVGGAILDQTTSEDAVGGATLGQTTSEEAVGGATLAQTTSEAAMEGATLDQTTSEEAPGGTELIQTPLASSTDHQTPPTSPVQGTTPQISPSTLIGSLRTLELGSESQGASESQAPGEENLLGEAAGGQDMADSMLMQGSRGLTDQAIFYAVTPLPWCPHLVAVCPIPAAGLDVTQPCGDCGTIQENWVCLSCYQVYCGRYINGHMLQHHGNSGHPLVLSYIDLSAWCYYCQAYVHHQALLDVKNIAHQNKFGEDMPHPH
Description: as §1, §2, §3

HDAC7 = biological target: T3, HDAC7 (Homo sapiens, UniProt Q8WUI4); assay: HDAC enzyme assay, in vitro biochemical; settings: maximum concentration tested of 20 μM
T3 construct: purchased BPS Biosciences
T3 sequence (Q8WUI4 1-952): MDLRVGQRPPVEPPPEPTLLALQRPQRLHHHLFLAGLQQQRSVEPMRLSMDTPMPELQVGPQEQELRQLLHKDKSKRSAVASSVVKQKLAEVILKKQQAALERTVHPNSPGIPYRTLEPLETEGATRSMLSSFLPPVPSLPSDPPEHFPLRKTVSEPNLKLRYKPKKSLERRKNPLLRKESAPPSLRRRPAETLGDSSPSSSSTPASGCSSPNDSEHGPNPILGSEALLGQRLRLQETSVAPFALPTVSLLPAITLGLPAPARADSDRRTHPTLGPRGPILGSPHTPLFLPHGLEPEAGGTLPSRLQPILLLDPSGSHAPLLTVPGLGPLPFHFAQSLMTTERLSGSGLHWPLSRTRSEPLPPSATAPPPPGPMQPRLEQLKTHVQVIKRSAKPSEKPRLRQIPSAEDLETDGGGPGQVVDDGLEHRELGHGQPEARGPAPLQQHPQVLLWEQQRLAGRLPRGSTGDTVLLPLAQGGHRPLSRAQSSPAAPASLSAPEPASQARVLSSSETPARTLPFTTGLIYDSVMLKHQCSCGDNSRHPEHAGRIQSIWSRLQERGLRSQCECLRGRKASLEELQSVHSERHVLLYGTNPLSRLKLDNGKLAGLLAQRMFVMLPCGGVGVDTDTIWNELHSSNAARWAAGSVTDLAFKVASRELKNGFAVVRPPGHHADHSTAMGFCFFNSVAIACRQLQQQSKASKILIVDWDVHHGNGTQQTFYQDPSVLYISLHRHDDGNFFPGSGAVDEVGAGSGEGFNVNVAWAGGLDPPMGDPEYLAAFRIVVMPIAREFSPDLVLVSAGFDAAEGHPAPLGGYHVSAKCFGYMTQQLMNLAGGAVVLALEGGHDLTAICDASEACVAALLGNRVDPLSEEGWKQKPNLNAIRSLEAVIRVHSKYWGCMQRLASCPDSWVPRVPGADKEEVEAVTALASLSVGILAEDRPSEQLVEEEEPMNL
Description: as §1, §2, §3

Kasumi-1 cells = assay: Cell viability assay (CellTiter-Glo); settings: read-out: IC50 cell viability Kasumi-1; 72 hours
Description: (§4) MV-4-11, Kasumi-1, and HL-60 AML cell lines were all obtained from ATCC. MOLM-13 and NB-4 cell lines were obtained from DSMZ. […] The identity of each cell line was validated and documented by the suppliers. All experiments were performed with cells maintained at low passage numbers.
(§5) Compounds and/or solvent dimethyl sulfoxide (DMSO) were added at the same time using an HP D300 digital dispenser (Hewlett Packard) in triplicate or quadruplicate and incubated for 72 hours at 37°C. Viability was measured by adding 25 μL CellTiter-Glo (Promega), incubating for 10 minutes, and measuring luminescence on a SpectraMax (Molecular Devices). […] CI < 1 indicates synergism, CI = 1 indicates additivity, and CI > 1 indicates antagonism.

HL-60 cells = assay: Cell viability assay (CellTiter-Glo); settings: read-out: IC50 cell viability HL-60; 72 hours
Description: as §4, §5

MV-4-11 cells = assay: Cell viability assay (CellTiter-Glo), single agent and combination; settings: read-out: IC50 cell viability MV-4-11; 72 hours
Description: as §4, §5

T1 sequence (P56524 whole entry): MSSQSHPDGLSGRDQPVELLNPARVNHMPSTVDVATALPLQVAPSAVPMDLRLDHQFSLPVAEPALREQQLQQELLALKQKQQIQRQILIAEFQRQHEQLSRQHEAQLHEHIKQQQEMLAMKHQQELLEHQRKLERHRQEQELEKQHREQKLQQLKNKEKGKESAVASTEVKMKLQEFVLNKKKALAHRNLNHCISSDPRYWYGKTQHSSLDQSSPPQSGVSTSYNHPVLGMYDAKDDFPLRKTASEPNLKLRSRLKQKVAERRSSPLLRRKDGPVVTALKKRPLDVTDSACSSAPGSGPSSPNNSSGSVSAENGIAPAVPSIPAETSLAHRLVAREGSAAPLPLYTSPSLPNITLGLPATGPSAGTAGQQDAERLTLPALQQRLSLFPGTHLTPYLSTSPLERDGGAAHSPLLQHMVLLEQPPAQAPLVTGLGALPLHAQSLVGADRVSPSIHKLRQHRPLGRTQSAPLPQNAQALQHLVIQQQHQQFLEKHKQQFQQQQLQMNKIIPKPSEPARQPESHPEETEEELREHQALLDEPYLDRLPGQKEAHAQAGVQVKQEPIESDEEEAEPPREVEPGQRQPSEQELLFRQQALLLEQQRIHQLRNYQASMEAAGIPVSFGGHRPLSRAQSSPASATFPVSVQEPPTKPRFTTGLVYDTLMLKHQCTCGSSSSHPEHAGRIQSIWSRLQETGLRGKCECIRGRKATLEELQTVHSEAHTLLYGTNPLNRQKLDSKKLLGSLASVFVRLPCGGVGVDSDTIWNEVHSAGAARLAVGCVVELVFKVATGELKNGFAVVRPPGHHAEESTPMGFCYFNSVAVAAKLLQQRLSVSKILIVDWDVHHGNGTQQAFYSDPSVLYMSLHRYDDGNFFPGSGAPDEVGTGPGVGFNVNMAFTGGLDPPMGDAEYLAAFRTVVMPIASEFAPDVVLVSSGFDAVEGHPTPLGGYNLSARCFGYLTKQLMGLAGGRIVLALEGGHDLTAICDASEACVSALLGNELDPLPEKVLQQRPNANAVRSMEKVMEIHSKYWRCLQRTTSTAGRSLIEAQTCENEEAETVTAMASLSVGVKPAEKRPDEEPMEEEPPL

## Nc1ccc(-c2cccs2)cc1NC(=O)c1ccc2c(c1)cc(C1CC1)n2CCN1CCOCC1 [ACY-1035]
HDAC4
  inhibition of HDAC4: did not inhibit
HDAC6
  inhibition of HDAC6: did not inhibit
HDAC7
  inhibition of HDAC7: did not inhibit
Kasumi-1 cells
  IC50: 2600 nM
HL-60 cells
  IC50: 3300 nM
MV-4-11 cells
  IC50: 1400 nM
